Data on 2 compounds can be found in PMC6151550, “Inhibitory Effect of Selaginellins from Selaginella tamariscina (Beauv.) Spring against Cytochrome P450 and Uridine 5′-Diphosphoglucuronosyltransferase Isoforms on Human Liver Microsomes” (Molecules : A Journal of Synthetic Chemistry and Natural …, 2017).

Like-named read-outs stand apart in the source and are kept apart here.

What all share (assay type): in vitro ADME
One data set deals with T1, CYP2C19 (Homo sapiens, UniProt P33261).
T1 construct: the incubation mixtures containing pooled HLMs (0.25 mg/mL, H2630, Xenotech); tissue Xenotech H2630; host or cells: pooled human liver microsomes
As to the kind of experiment: CYP2C19 inhibition (omeprazole 5-hydroxylase) in human liver microsomes, substrate cocktail LC-MS/MS. The method, then: (§1) The inhibitory effects of two selaginellins on the metabolism of ten P450 probe substrates were evaluated using previously reported method with minor modification. Phenacetin O-deethylase, coumarin 7-hydroxylase, bupropion 4-hydroxylase, amodiaquine N-deethylase, tolbutamide 4-hydroxylase, omeprazole 5-hydroxylase, dextromethorphan O-demethylase, chlorzoxazone 6-hydroxylase and midazolam 1′-hydroxylase activities were determined as probe activities for CYP1A2, CYP2A6, CYP2B6, CYP2C8, CYP2C9, CYP2C19, CYP2D6, CYP2E1 and […], respectively, using substrate cocktail incubation and tandem mass spectrometry (Table 2). Selaginellins were dissolved in methanol. The final concentrations of organic solvent (methanol) for the cocktail incubation conditions in all experiments were 1.0% (v/v). In brief, the incubation mixtures containing pooled HLMs (0.25 mg/mL, H2630, Xenotech), P450 probe substrate cocktail, and inhibitor (0, 0.5, 2, 5, 20 and 50 μM) were preincubated at 37 °C for 5 min. […] After mixing and centrifugation, aliquots were analyzed by liquid chromatography-tandem mass spectrometry (LC-MS/MS) as previous described. The CYP2J2 inhibitory effects of two selaginellins were also evaluated in pooled HLMs using previously reported method. […]
(Liver microsomes are a subcellular fraction often used to study metabolism.)

A further data set relates to CYP3A. Put plainly: CYP3A inhibition (midazolam 1'-hydroxylase) in human liver microsomes, substrate cocktail LC-MS/MS. As to the method:
as §1

The target of the next data set is T2, UGT1A3 (Homo sapiens, UniProt P35503).
T2 construct: from tissue; host or cells: human liver microsomes
T2 sequence (P35503 29-534): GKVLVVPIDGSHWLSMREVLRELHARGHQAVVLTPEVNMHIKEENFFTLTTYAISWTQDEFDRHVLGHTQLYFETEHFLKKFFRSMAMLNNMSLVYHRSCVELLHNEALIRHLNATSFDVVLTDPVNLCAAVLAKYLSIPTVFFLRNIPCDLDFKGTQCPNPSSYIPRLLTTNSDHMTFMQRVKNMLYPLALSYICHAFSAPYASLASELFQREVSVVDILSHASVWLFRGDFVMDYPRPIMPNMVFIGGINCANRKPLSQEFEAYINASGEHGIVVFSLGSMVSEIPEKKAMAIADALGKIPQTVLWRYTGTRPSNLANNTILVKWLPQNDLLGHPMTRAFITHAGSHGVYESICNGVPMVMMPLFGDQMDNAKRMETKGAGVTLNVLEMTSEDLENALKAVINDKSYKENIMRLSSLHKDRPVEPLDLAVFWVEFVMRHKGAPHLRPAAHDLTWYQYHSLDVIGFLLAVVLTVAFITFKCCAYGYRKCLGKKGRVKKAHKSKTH
As to the kind of experiment: UGT1A3 inhibition (chenodeoxycholic acid glucuronidation) in human liver microsomes, cocktail LC-MS/MS. The note with it: IC50 UGT isoform 1A3, HLMs 0.25 mg/mL with alamethicin, chenodeoxycholic acid 2.0 μM. The method, then: The inhibitory effects of two selaginellins on the metabolism of six UGT probe substrates were evaluated using previously reported method with minor modification. In brief, HLMs (0.25 mg/mL) were activated by incubation in the presence of alamethicin (25 μg/mL) for 15 min on ice. After the addition of UGT isoform-selective substrates and selaginellins (0, 0.5, 2, 5, 20 and 50 μM) the final concentrations of organic solvent (methanol) for the cocktail incubation conditions were 1.0% (v/v). The incubation reaction mixtures were pre-incubated for 5 min. The reaction was initiated by the addition of 5 mM UDPGA and further incubated for 60 min. All reactions were terminated by adding ice-cold acetonitrile containing estrone glucuronide (IS). After mixing and centrifugation, aliquots were injected into a LC-MS/MS as described previously (Table 2). All microsomal incubations were performed in triplicate.
The IC50 values (concentration of the inhibitor causing 50% inhibition of the original enzyme activity) were calculated using WinNonlin software (Pharsight, Mountain View, CA, USA): percentage of control activity = 100 × [1 − (I/(I + IC50))], where I is the inhibitor concentration, and IC50 is the inflection point on the curve.

T1 sequence (P33261 whole entry): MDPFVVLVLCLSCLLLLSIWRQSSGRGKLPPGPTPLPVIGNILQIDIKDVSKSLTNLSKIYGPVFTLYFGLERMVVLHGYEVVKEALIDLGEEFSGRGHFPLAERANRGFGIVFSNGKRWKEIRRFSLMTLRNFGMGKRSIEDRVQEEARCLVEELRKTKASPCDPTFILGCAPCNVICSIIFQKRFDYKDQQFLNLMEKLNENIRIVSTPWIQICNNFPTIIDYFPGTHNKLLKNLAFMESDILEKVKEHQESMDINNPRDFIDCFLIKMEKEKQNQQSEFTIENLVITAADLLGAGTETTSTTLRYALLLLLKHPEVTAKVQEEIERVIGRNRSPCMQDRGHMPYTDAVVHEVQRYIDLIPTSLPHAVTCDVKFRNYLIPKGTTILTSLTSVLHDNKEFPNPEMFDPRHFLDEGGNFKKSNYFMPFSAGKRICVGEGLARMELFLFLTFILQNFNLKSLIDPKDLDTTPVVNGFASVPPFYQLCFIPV

With `COc1ccc(C(=C2C=CC(=O)C=C2)c2c(-c3ccc(O)cc3)ccc(CO)c2C#Cc2ccc(O)cc2)cc1` [Selaginellin M], the results for the IC50 at CYP2C19 and against UGT1A3 were 16.1 µM and 3.5 µM, respectively. The compound further displayed a half-inhibitory concentration (IC50) at 15 min in the data set with CYP3A greater than 50 µM.
Turning to `O=C1C=CC(=C(c2ccc(O)cc2)c2c(-c3ccc(O)cc3)ccc(CO)c2C#Cc2ccc(O)cc2)C=C1` [Selaginellin], the half-inhibitory concentration (IC50) against CYP2C19 was determined as 10 µM; against UGT1A3 it was 4.7 µM. Moreover, the IC50 at 15 min in the data set with CYP3A (pooled HLMs 0.25 mg/mL, midazolam 5.0 μM, read-out: IC50 P450 isoform 3A) stood at 11.7 µM.

Usually IC50 stands for the midpoint of a concentration-inhibition curve.
